These are literature values, as cited in paper PMC2217447 (The Journal of General Physiology, 2004).

“Also recorded” adds a separate entry of the source. Read-outs that look alike come from different tables or passages of the source.

For data set [1], the target named is T1, Shaker B K^+ channels (Drosophila melanogaster, UniProt P08510). Particulars: external TEA, ref Gómez-Lagunas, 1997.
In data set [2] the target is T1, Shaker B K^+ channels. The settings on record: for effect of external K^+ on block of Shaker (in words): ref Goldstein and Miller, 1993.

T1 sequence (P08510 whole entry): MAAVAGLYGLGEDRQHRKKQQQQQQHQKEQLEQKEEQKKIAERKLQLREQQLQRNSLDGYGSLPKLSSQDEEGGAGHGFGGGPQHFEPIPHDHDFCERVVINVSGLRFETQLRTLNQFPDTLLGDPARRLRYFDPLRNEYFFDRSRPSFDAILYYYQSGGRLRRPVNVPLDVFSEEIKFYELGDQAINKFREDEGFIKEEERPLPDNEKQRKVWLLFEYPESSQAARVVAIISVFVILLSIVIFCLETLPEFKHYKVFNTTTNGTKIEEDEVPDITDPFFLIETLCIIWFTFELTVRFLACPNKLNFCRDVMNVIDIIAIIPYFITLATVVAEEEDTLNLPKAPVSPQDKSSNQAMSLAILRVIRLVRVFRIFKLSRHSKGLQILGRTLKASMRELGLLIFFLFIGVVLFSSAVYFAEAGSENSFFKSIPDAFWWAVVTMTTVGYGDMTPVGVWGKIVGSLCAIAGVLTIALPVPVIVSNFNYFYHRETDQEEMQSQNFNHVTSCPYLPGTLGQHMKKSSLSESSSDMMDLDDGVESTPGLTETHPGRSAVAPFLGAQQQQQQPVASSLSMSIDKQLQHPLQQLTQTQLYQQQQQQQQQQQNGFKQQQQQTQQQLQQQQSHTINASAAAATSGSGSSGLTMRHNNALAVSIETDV

With `CC[N+](CC)(CC)CC` [TEAo, tetraethylammonium], the “change of binding affinity in 0 K^+ (in words)” value at Shaker B K^+ channels [1] (Shaker channels) is recorded as “did not find a significant change in the binding affinity”. At Shaker B K^+ channels [1], the “affinity (Kd) for inhibiting drop of GK vs block of IK (in words)” value is “basically the same affinity (Kd) with which it blocks the K^+ current (IK)” and the “effect on collapse of GK in 0 K^+ (in words)” value is “impedes the drop of GK in 0 K^+; also recorded: impedes the collapse of GK”. Besides, the “effect on collapse of GK in 0 K^+ (in words)” value on Shaker B K^+ channels [1] (listed as TEA) is on record as “the collapse of GK is prevented”.

With Agitoxin2 [AgTx2], the “effect of external K^+ on binding to Shaker (in words)” value with Shaker B K^+ channels [2] (ref Ranganathan et al., 1996) is “destabilized by Ko ^+ ions”. “ChTx R25Q: mutant R25Q (a glutamine substituting arginine in position 25) of ChTx”: the “effect of external K^+ on block of Shaker (in words)” value with Shaker B K^+ channels [2] is on record as “destabilized by Ko ^+ ions; also recorded: decreased by Ko ^+”. Turning to Charybdotoxin [ChTx], in the data set with Shaker B K^+ channels [2], the “effect of external K^+ on block of Shaker (in words)” value is “not altered by external K^+ ions; also recorded: not destabilized by Ko ^+”.
